Patent US11390589B2, “Herbicidally active substituted phenylpyrimidines” (Bayer Aktiengesellschaft, priority 2018, dated 2022)

Legend:
Type in all cases: in vivo
Stellaria media [1] = experiment: Method A: post-emergence herbicidal action; conditions: rated visually after about 3 weeks
Experimental: (§1) Method A: Post-Emergence Herbicidal Action and Crop Plant Compatibility
(§2) Seeds of monocotyledonous and dicotyledonous weeds and crop plants are placed in sandy loam in plastic or organic planting pots, covered with soil and cultivated in a greenhouse under controlled growth conditions. 2 to 3 weeks after sowing, the test plants are treated at the one-leaf stage. The compounds of the invention, formulated in the form of wettable powders (WP) or as emulsion concentrates (EC), are then sprayed onto the green parts of the plants as aqueous suspension or emulsion with addition of 0.5% additive at a water application rate of […] (converted). After the test plants have been kept in the greenhouse under optimum growth conditions for about 3 weeks, the activity of the preparations is rated visually in comparison to untreated controls. For example, 100% activity=the plants have died, 0% activity=like control plants.

Lolium rigidum [2] = experiment: Method A: post-emergence herbicidal action; conditions: rated visually after about 3 weeks
Experimental: as §1, §2

Avena fatua [3] = experiment: Method A: post-emergence herbicidal action; conditions: rated visually after about 3 weeks
Experimental: as §1, §2

Alopecurus myosuroides [4] = experiment: Method A: post-emergence herbicidal action; conditions: rated visually after about 3 weeks
Experimental: as §1, §2

Hordeum murinum [5] = experiment: Method A: post-emergence herbicidal action; conditions: rated visually after about 3 weeks
Experimental: as §1, §2

Echinochloa crus-galli [6] = experiment: Method A: post-emergence herbicidal action; conditions: rated visually after about 3 weeks
Experimental: as §1, §2

Polygonum convolvulus [7] = experiment: Method A: post-emergence herbicidal action; conditions: rated visually after about 3 weeks
Experimental: as §1, §2

harmful plants [8] = experiment: Method B: pre-emergence herbicidal action, summary in text; conditions: applied pre-emergence, table B (320 g/ha)
From the text: (§3) Method B: Pre-Emergence Herbicidal Action and Crop Plant Compatibility
(§4) Seeds of monocotyledonous and dicotyledonous weed plants and crop plants are placed in plastic or organic planting pots and covered with soil. The compounds of the invention, formulated in the form of wettable powders (WP) or as emulsion concentrates (EC), are then applied onto the surface of the covering soil as aqueous suspension or emulsion with addition of 0.5% additive at a water application rate of […] (converted). After the treatment, the pots are placed in a greenhouse and kept under good growth conditions for the trial plants. After about 3 weeks, the effect of the preparations is scored visually in comparison with untreated controls as percentages. For example, 100% activity=the plants have died, 0% activity=like control plants.

harmful plants [9] = experiment: Method A: post-emergence herbicidal action, summary in text; conditions: applied post-emergence, table A (320 g/ha)
Experimental: as §1, §2

Abufilon theophrast = experiment: Method B: pre-emergence herbicidal action; conditions: scored visually after about 3 weeks
From the text: as §3, §4

Stellaria media [10] = experiment: Method B: pre-emergence herbicidal action; conditions: scored visually after about 3 weeks
From the text: as §3, §4

Lolium rigidum [11] = experiment: Method B: pre-emergence herbicidal action; conditions: scored visually after about 3 weeks
From the text: as §3, §4

Digitaria sanguinalis = experiment: Method B: pre-emergence herbicidal action; conditions: scored visually after about 3 weeks
From the text: as §3, §4

Avena fatua [12] = experiment: Method B: pre-emergence herbicidal action; conditions: scored visually after about 3 weeks
From the text: as §3, §4

Alopecurus myosuroides [13] = experiment: Method B: pre-emergence herbicidal action; conditions: scored visually after about 3 weeks
From the text: as §3, §4

Hordeum murinum [14] = experiment: Method B: pre-emergence herbicidal action; conditions: scored visually after about 3 weeks
From the text: as §3, §4

Echinochloa crus-galli [15] = experiment: Method B: pre-emergence herbicidal action; conditions: scored visually after about 3 weeks
From the text: as §3, §4

Polygonum convolvulus [16] = experiment: Method B: pre-emergence herbicidal action; conditions: scored visually after about 3 weeks
From the text: as §3, §4

Stellaria media [17] = experiment: Method E: herbicidal early post-emergence action; conditions: cotyledon stage, 96-well microtiter plates, scored visually after 9 to 12 days
Experimental: (§5) Method E: Herbicidal Early Post-Emergence Action Seeds of monocotyledonous or dicotyledonous weed plants are placed in 96-well microtiter plates in quartz sand and grown in a climatized chamber under controlled growth conditions. 5 to 7 days after sowing, the test plants are treated at the cotyledon stage. The compounds of the invention, formulated in the form of emulsion concentrates (EC), are applied with a water application rate of the equivalent of 2200 liters per hectare. After the test plants had been left to stand in the climatized chamber for 9 to 12 days under optimum growth conditions, the effect of the preparations is scored visually in comparison to untreated controls. For example, 100% activity=the plants have died, 0% activity=like control plants.

Lolium perenne = experiment: Method E: herbicidal early post-emergence action; conditions: cotyledon stage, 96-well microtiter plates, scored visually after 9 to 12 days
Experimental: as §5

Agrostis tenuis = experiment: Method E: herbicidal early post-emergence action; conditions: cotyledon stage, 96-well microtiter plates, scored visually after 9 to 12 days
Experimental: as §5

Poa annua = experiment: Method E: herbicidal early post-emergence action; conditions: cotyledon stage, 96-well microtiter plates, scored visually after 9 to 12 days
Experimental: as §5

Matricaria chamonilla = experiment: Method E: herbicidal early post-emergence action; conditions: cotyledon stage, 96-well microtiter plates, scored visually after 9 to 12 days
Experimental: as §5

harmful plants [18] = experiment: Method E: herbicidal early post-emergence action, summary in text; conditions: applied in early post-emergence, table E (1900 g/ha)
Experimental: as §5

Structure (SMILES)	Post-emergence action at 320 g/ha STEME (Stellaria media [1]) [%]	Post-emergence action at 320 g/ha LOLRI (Lolium rigidum [2]) [%]	Post-emergence action at 320 g/ha AVEFA (Avena fatua [3]) [%]	Post-emergence action at 320 g/ha ALOMY (Alopecurus myosuroides [4]) [%]	Post-emergence action at 320 g/ha HORMU (Hordeum murinum [5]) [%]	Post-emergence action at 320 g/ha ECHCG (Echinochloa crus-galli [6]) [%]	Post-emergence action at 320 g/ha POLCO (Polygonum convolvulus [7]) [%]	herbicidal efficacy against harmful plants (harmful plants [8])	herbicidal efficacy against harmful plants (harmful plants [9])	Pre-emergence action at 320 g/ha ABUTH (Abufilon theophrast) [%]	Pre-emergence action at 320 g/ha STEME (Stellaria media [10]) [%]	Pre-emergence action at 320 g/ha LOLRI (Lolium rigidum [11]) [%]	Pre-emergence action at 320 g/ha DIGSA (Digitaria sanguinalis) [%]	Pre-emergence action at 320 g/ha AVEFA (Avena fatua [12]) [%]	Pre-emergence action at 320 g/ha ALOMY (Alopecurus myosuroides [13]) [%]	Pre-emergence action at 320 g/ha HORMU (Hordeum murinum [14]) [%]	Pre-emergence action at 320 g/ha ECHCG (Echinochloa crus-galli [15]) [%]	Pre-emergence action at 320 g/ha POLCO (Polygonum convolvulus [16]) [%]	Early post-emergence action at 1900 g/ha AGSTE (Agrostis tenuis) [%]	Early post-emergence action at 1900 g/ha POAAN (Poa annua) [%]	other results
CN(C)C(=O)C(=O)Cc1nc(C2CC2)ncc1-c1ccccc1Cl [Example I-139, 3-[5-(2-chlorophenyl)-2-cyclopropylpyrimidin-4-yl]-N,N-dimethyl-2-oxopropanamide]	80	100	90	100	90	90	90	very good herbicidal efficacy	very good herbicidal efficacy	80	100	100	100	80	100	90	100	90	100	100	Early post-emergence action at 1900 g/ha STEME (Stellaria media [17]): 100%; Early post-emergence action at 1900 g/ha LOLPE (Lolium perenne): 80%; Early post-emergence action at 1900 g/ha MATCH (Matricaria chamonilla): 100%
CCOC(=O)C(=O)Cc1nc(C2CC2)ncc1-c1ccccc1Cl [II-099, ethyl 3-[5-(2-chlorophenyl)-2-cyclopropylpyrimidin-4-yl]-2-oxopropanoate]	100	100	90	90	80	90	90	very good herbicidal efficacy	very good herbicidal efficacy	80	100	100	90	90	100	90	100	90	100	100	herbicidal efficacy against harmful plants (harmful plants [18]): very good herbicidal efficacy; Early post-emergence action at 1900 g/ha MATCH (Matricaria chamonilla): 100%
